Literature values, collected in patent US8808764B2, “Methods and compositions for increasing growth hormones” (Quality IP Holdings, Inc., priority 2012, dated 2014).

Columns and labels:
[1] = test system: hGH
[2] = test system: GH; conditions: subcutaneous injection of 0.06 IU in GH deficient subjects

| Compound | elevation of serum hGH levels ([1]; 30 g, intravenous, in males) | increase in hGH levels ([1]; intravenous infusion of 183 mg/kg body weight in females) | mean level of GH reached [2] |
| --- | --- | --- | --- |
| N=C(N)NCCC[C@H](N)C(=O)O [arginine] | 8.6 fold | ≥ 20 fold |  |
| HGH: human growth hormone given by subcutaneous injection to GH deficient subjects |  |  | 0.4 ng/mL |
